According to ChEMBL document CHEMBL5506035, “Discovery of Glutamate Carboxypeptidase III Ligands to Compete the Uptake of [177Lu]Lu-PSMA-617 in Healthy Organs” (J Med Chem, 2024):
Calls of active or inactive are those of the source. The calls are words filed in the database; no cut-off is given here.

Key:
Interleukin-15 = Interleukin-15 (Homo sapiens, UniProt P40933); test: Binding affinity to IL-15 (unknown origin) assessed as dissociation constant by fluorescence polarization assay
Albumin [1] = target: Albumin (Rattus norvegicus, UniProt P02770); test: Binding affinity to rat serum albumin by fluorescence polarization assay
Albumin [2] = target: Albumin (Oryctolagus cuniculus, UniProt P49065); test: Binding affinity to rabbit serum albumin by fluorescence polarization assay
[3] = target: Stromelysin-1 (Homo sapiens) (UniProt P08254); test: Binding affinity to MMP3 (unknown origin) by fluorescence polarization assay
[4] = target: T1, Glutamate carboxypeptidase 2 (Homo sapiens, UniProt Q04609); test: Binding affinity to human recombinant PSMA assessed as dissociation constant by fluorescence polarization assay
Target sequence in this assay (Q04609 whole entry): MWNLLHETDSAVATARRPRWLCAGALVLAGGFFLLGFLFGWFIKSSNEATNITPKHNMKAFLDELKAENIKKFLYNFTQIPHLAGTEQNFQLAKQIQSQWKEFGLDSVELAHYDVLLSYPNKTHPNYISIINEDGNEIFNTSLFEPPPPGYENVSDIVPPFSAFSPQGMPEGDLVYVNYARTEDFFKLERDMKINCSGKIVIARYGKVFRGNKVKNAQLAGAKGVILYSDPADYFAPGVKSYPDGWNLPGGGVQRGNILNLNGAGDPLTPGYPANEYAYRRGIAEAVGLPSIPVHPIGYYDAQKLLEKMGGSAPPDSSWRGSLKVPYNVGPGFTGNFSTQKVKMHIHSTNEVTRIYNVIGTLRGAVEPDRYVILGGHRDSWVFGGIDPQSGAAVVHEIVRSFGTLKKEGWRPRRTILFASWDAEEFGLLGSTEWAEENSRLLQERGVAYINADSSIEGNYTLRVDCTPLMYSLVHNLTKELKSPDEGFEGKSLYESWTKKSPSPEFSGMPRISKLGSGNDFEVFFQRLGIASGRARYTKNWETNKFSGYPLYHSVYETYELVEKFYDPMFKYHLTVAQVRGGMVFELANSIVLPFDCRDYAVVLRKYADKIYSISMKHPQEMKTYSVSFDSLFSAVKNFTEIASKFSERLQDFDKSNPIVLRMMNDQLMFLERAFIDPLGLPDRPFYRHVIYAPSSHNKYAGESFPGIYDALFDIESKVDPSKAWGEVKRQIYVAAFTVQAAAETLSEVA

[5] = Binding affinity to IL-9 receptor (unknown origin) assessed as dissociation constant by fluorescence polarization assay; parameters: species or system Homo sapiens
Homo sapiens = organism: Homo sapiens; test: Ratio of Kd for binding affinity to human recombinant GCPIII assessed as dissociation constant by fluorescence polarization assay to Kd for binding affinity to human recombinant PSMA assessed as dissociation constant by fluorescence polarization assay
[6] = target: T2, N-acetylated-alpha-linked acidic dipeptidase 2 (Homo sapiens, UniProt Q9Y3Q0); test: Binding affinity to human recombinant GCPIII assessed as dissociation constant by fluorescence polarization assay
Target sequence in this assay (Q9Y3Q0 whole entry): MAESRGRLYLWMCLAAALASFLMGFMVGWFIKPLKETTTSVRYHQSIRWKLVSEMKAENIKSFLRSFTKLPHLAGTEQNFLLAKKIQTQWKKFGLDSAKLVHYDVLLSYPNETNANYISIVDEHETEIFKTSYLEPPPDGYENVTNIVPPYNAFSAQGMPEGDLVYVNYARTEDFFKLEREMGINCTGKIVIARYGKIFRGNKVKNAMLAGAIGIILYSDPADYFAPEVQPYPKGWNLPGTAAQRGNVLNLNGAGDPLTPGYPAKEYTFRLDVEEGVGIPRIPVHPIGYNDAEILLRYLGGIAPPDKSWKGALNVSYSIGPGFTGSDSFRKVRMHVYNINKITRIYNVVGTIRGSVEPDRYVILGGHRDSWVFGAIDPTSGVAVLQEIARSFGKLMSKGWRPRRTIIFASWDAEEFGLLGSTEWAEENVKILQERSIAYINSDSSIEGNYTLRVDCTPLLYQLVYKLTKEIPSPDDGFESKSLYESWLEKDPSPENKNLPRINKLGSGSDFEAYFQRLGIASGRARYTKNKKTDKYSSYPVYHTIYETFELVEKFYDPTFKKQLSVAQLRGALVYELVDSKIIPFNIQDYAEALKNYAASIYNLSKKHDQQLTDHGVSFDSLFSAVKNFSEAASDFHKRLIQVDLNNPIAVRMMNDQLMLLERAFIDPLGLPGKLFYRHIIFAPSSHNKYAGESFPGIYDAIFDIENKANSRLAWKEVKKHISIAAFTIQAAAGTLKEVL

[7] = target: Urokinase-type plasminogen activator (Homo sapiens, UniProt P00749); test: Binding affinity to Urokinase (unknown origin) assessed as dissociation constant by fluorescence polarization assay
[8] = target: Immunoglobulin heavy constant gamma 4 (Homo sapiens) (UniProt P01861); test: Binding affinity to IgG4 (unknown origin) by fluorescence polarization assay
Prolyl endopeptidase FAP [9] = target: T3, Prolyl endopeptidase FAP (Mus musculus, UniProt P97321); test: Binding affinity to mouse FAP assessed as dissociation constant by fluorescence polarization assay
T3 sequence (P97321 whole entry): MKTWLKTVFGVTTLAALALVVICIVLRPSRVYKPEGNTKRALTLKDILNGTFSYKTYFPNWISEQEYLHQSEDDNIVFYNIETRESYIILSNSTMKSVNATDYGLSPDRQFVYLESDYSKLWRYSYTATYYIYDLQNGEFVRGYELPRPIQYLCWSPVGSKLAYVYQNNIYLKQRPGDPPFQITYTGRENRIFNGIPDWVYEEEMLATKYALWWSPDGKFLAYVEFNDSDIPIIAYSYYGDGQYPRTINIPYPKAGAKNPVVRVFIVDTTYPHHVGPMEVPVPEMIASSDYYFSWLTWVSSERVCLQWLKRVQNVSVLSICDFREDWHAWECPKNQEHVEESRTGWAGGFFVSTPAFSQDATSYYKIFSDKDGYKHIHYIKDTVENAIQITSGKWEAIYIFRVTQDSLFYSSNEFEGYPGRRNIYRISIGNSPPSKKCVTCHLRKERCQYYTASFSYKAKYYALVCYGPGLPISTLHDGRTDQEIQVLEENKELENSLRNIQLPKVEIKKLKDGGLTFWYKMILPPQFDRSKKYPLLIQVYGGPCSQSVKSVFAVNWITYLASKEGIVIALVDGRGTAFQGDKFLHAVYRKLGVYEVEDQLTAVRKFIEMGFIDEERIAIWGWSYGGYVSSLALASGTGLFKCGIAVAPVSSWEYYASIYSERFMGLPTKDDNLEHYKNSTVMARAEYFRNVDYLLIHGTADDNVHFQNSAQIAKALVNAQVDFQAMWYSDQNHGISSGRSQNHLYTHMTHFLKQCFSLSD

Albumin [10] = target: Albumin (Macaca fascicularis, UniProt A2V9Z4); test: Binding affinity to cynomolgus serum albumin by fluorescence polarization assay; conditions: cynomolgus monkey
[11] = target: Carbonic anhydrase 2 (Homo sapiens) (UniProt P00918); test: Binding affinity to Carbonic anhydrase II (unknown origin) by fluorescence polarization assay
[12] = target: T1, Glutamate carboxypeptidase 2; test: Displacement of [177Lu]LU-PSMA-617 from PSMA in human salivary gland assessed as residual activity at 10 uM incubated for 1 hr by autoradiography analysis relative to control; format: tissue-based
Target sequence in this assay (Q04609 whole entry, looked up): as the sequence (Q04609 whole entry) above

[13] = target: Natural cytotoxicity triggering receptor 1 (Homo sapiens, UniProt O76036); test: Binding affinity to NKp46 (unknown origin) assessed as dissociation constant by fluorescence polarization assay
Prolyl endopeptidase FAP [14] = target: T4, Prolyl endopeptidase FAP (Homo sapiens, UniProt Q12884); test: Binding affinity to human FAP assessed as dissociation constant by fluorescence polarization assay
T4 sequence (Q12884 whole entry): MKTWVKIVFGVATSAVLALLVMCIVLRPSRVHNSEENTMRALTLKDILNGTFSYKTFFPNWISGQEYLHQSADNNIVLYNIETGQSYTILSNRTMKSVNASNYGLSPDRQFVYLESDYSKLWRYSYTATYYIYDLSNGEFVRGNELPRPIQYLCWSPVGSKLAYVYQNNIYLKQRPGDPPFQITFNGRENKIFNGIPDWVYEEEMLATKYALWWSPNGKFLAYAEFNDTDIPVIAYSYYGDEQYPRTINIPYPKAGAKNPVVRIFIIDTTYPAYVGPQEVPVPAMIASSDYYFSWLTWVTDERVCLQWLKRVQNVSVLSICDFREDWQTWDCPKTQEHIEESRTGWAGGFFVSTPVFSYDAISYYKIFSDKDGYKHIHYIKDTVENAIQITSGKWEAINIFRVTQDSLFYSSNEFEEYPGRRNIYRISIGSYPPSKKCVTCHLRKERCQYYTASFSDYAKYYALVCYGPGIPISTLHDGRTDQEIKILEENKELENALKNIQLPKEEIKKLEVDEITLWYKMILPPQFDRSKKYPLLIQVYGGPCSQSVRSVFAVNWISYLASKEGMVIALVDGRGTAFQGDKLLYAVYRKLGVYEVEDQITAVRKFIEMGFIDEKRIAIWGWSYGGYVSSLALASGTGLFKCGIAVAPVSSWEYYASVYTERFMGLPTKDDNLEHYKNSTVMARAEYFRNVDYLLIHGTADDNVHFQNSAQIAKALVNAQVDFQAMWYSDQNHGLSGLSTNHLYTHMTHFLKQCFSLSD

Albumin [15] = target: Albumin (Bos taurus, UniProt P02769); test: Binding affinity to bovine serum albumin by fluorescence polarization assay
Albumin [16] = target: Albumin (Homo sapiens, UniProt P02768); test: Binding affinity to human serum albumin by fluorescence polarization assay
[17] = target: T1, Glutamate carboxypeptidase 2; test: Displacement of [177Lu]LU-PSMA-617 from human PSMA at 10 to 100 uM incubated for 15 mins by manual size-exclusion chromatography analysis; conditions: dose 10-100 µM
Target sequence in this assay (Q04609 whole entry, looked up): as the sequence (Q04609 whole entry) above

[18] = target: T2, N-acetylated-alpha-linked acidic dipeptidase 2; test: Displacement of [177Lu]LU-PSMA-617 from human […] at 10 to 100 uM incubated for 15 mins by manual size-exclusion chromatography analysis; conditions: dose 10-100 µM
Target sequence in this assay (Q9Y3Q0 whole entry, looked up): as the sequence (Q9Y3Q0 whole entry) above

[19] = target: T1, Glutamate carboxypeptidase 2; test: Displacement of [177Lu]LU-PSMA-617 from PSMA in human HT-1080 cells by autoradiography analysis; format: cell-based; conditions: dose 0.6-50 µM
Target sequence in this assay (Q04609 whole entry, looked up): as the sequence (Q04609 whole entry) above

Sequence of Interleukin-15 (P40933 whole entry): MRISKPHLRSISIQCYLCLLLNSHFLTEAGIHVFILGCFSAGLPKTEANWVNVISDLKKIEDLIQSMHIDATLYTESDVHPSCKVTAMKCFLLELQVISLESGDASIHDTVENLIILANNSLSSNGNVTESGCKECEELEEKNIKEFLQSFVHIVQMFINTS
Sequence of Albumin (Bos taurus, UniProt P02769) (P02769 whole entry): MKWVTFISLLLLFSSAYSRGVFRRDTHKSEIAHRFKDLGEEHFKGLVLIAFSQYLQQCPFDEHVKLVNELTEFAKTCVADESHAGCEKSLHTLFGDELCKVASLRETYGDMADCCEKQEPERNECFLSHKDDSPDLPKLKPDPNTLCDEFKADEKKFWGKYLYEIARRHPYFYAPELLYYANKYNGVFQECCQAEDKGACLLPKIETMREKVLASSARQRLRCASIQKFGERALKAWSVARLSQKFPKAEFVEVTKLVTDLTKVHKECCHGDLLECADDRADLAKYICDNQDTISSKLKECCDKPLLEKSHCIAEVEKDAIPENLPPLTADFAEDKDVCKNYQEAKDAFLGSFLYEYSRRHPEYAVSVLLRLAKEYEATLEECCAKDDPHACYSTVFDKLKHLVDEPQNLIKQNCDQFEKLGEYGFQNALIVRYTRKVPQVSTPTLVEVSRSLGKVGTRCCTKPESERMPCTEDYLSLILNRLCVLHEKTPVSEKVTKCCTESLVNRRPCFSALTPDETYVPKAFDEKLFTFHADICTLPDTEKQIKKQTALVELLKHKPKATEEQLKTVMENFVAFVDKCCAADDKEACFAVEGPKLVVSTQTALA
Sequence of Albumin (Macaca fascicularis, UniProt A2V9Z4) (A2V9Z4 whole entry): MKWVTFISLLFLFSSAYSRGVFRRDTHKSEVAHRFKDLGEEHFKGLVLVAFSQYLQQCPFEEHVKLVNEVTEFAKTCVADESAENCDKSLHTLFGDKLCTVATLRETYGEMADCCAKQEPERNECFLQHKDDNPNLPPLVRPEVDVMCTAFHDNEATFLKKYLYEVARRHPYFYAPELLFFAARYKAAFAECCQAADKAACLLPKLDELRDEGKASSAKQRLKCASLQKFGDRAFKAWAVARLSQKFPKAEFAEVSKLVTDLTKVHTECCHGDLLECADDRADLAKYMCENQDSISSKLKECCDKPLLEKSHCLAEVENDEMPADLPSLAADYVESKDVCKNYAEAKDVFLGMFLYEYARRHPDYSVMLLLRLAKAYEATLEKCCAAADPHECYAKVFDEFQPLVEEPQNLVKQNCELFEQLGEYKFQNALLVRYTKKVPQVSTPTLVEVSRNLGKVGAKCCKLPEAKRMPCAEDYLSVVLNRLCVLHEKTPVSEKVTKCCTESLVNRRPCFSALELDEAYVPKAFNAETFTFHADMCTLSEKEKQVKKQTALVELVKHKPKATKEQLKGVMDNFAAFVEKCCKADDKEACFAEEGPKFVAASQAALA
Sequence of Immunoglobulin heavy constant gamma 4 (Homo sapiens) (P01861 whole entry): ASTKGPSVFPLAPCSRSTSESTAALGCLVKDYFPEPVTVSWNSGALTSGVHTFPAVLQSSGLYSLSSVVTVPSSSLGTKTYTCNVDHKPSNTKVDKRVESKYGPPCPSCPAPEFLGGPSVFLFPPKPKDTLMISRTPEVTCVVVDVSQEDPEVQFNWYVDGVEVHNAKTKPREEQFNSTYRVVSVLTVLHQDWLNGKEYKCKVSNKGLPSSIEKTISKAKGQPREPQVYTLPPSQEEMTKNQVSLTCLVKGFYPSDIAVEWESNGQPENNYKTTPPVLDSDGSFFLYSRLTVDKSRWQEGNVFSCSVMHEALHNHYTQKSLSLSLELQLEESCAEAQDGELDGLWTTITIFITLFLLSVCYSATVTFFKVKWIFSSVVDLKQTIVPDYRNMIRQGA
Sequence of Albumin (Homo sapiens, UniProt P02768) (P02768 whole entry): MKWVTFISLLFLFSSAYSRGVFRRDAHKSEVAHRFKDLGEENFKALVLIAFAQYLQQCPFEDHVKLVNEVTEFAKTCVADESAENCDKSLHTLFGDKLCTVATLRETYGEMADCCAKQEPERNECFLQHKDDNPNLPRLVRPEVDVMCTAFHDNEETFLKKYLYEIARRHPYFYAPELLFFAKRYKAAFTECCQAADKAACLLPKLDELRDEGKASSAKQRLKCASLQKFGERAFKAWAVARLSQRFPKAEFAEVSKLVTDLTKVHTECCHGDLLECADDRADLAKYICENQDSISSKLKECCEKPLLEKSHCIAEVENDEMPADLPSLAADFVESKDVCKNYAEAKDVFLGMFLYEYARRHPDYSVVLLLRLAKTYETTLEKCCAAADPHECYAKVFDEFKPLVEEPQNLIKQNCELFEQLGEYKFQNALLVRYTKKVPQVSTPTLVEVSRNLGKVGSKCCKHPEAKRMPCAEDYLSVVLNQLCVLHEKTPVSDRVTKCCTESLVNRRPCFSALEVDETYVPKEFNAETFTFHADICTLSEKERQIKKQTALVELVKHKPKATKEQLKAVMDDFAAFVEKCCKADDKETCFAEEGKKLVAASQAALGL
Sequence of Stromelysin-1 (Homo sapiens) (P08254 100-477 limits assumed): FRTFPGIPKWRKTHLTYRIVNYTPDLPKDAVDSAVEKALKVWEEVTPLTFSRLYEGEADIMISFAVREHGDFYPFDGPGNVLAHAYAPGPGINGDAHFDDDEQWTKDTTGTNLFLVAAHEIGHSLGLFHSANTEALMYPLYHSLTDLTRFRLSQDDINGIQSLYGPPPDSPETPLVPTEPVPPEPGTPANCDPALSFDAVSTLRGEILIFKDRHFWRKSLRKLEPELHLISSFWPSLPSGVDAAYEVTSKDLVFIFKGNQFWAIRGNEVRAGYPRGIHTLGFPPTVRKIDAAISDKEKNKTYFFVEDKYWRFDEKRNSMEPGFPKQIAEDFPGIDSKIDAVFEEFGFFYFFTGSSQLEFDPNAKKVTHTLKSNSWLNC
Sequence of Natural cytotoxicity triggering receptor 1 (O76036 whole entry): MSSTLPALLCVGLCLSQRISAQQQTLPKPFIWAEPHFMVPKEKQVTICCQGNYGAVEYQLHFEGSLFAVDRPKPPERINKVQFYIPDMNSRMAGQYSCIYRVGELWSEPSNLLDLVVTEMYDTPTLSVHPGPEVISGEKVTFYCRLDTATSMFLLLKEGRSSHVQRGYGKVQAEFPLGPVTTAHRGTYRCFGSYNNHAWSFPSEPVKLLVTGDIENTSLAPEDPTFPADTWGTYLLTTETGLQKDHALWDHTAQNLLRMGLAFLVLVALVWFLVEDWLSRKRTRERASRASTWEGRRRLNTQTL

With `O=C(N[C@@H]1C[C@@H](C(=O)N[C@@H](CCCCNC(=S)Nc2ccc3c(c2)C(=O)OC32c3ccc(O)cc3Oc3cc(O)ccc32)C(=O)O)N(C(=O)c2cnoc2C2CC2)C1)c1c[nH]nn1` the Kd (Interleukin-15) was greater than 5000 nM, the Activity (Albumin [1]) was “Not Active” and the Activity (Albumin [2]) was “Not Active”. For the same compound, the Activity [3] was “inactive”, the Kd [4] was greater than 2 nM and the Kd [5] was greater than 7500 nM. For the same compound, the Ratio (Homo sapiens) was 100, the Kd [6] was 14 nM and the Kd [7] was greater than 9500 nM. For the same compound, the Activity [8] was “inactive”, the Kd (Prolyl endopeptidase FAP [9]) was greater than 700 nM and the Activity (Albumin [10]) was “Not Active”. For the same compound, the Activity [11] was “inactive”, the Activity [12] was 39% and the Kd [13] was greater than 3300 nM. For the same compound, the Kd (Prolyl endopeptidase FAP [14]) was greater than 1500 nM, the Kd (Albumin [15]) was 4500 nM and the Activity (Albumin [16]) was “Not Active”.
In the case of `O=C(O)CC[C@H](NC(=O)N[C@@H](CCCCNC(=O)[C@H](Cc1ccc2ccccc2c1)NC(=O)[C@H]1CC[C@H](CNC(=O)CN2CCN(CC(=O)O)CCN(CC(=O)O)CCN(CC(=O)O)CC2)CC1)C(=O)O)C(=O)O`, the Activity [17] is reported as “inactive”.
With `O=C(N[C@@H]1C[C@@H](C(=O)N[C@@H](CNC(=S)Nc2ccc3c(c2)C(=O)OC32c3ccc(O)cc3Oc3cc(O)ccc32)C(=O)O)N(C(=O)c2c[nH]nn2)C1)c1c[nH]nn1` the Kd [4] was greater than 1000 nM, the Activity [18] was “Active” and the Kd [6] was 1.7 nM. The Activity [19] was “Dose-Dependent Effect” and the Activity [12] was 14%.
Work on `CCCCCCNC(=S)Nc1ccc2c(c1)C(=O)OC21c2ccc(O)cc2Oc2cc(O)ccc21` yielded an Activity [12] of 92%.
With `O=C(N[C@@H]1C[C@@H](C(=O)N[C@@H](CNC(=S)Nc2ccc3c(c2)C(=O)OC32c3ccc(O)cc3Oc3cc(O)ccc32)C(=O)O)N(C(=O)c2cnoc2C2CC2)C1)c1c[nH]nn1` the Kd [4] was greater than 1000 nM, the Kd [6] was 6.3 nM and the Activity [12] was 44%.
With `O=C(N[C@@H](CCCCNC(=S)Nc1ccc2c(c1)C(=O)OC21c2ccc(O)cc2Oc2cc(O)ccc21)C(=O)O)c1c[nH]nn1` the Ratio (Homo sapiens) was 20 and the Kd [6] was 87 nM.
`O=C(N[C@@H]1C[C@@H](C(=O)N[C@@H](CCCCNC(=S)Nc2ccc3c(c2)C(=O)OC32c3ccc(O)cc3Oc3cc(O)ccc32)C(=O)O)N(C(=O)c2c[nH]nn2)C1)c1c[nH]nn1` gave a Kd [4] greater than 1000 nM and a Kd [6] of 4.8 nM.
